What was measured:
hCRTH2 receptor [1] = target: T1, hCRTH2 receptor (Homo sapiens, UniProt Q9Y5Y4); assay: CRTH2 membranes radioligand binding assay ({3H}-PGD2); details: membranes of HEK 293 cells expressing recombinant hCRTH2; {3H}-PGD2 2.5 nM; 90 min
T1 construct: expressed in transfected cells
T1 sequence (Q9Y5Y4 1-395): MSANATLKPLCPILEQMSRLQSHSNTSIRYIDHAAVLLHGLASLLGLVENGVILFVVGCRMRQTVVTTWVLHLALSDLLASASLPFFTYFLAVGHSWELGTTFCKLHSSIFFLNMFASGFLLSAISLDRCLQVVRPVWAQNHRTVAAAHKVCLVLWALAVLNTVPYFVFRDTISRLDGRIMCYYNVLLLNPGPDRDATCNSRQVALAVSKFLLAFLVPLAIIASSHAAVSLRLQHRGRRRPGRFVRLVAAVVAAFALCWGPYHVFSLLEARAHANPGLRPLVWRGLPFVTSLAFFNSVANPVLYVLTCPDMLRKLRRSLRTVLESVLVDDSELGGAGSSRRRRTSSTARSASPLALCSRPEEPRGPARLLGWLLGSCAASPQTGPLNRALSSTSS
Procedure: Biological Assay: Preparation of CRTH2 Membranes and Radioligand Binding Assay:
Preparation of the membranes and radioligand binding assays are performed according to known procedures, e.g. Sawyer N. et al. (Br. J. Pharmacol., 2002, 137, 1163-1172). A clonal HEK 293 cell line, expressing high level of recombinant hCRTH2 receptor, is selected for the preparation of membranes. Cells are detached from culture plates in 5 ml buffer A per plate (5 mM Tris, 1 mM MgCl2x6 H2O, 0.1 mM PMSF, 0.1 mM phenanthroline) using a police rubber and transferred into centrifugation tubes and frozen at −80° C. After thawing, the cells are centrifuged at 500 g for 5 min and then resuspended in buffer A. Cells are then fragmented by homogeinization with a Polytron homogenizer for 30 s. The membrane fragments are centrifuged at 3000 g for 40 min and resuspended in membranes in buffer B (50 mM Tris, 25 mM MgCl2, 250 mM saccharose, pH 7.4) and aliquots are stored frozen.
Binding assay is performed in a total volume of 250 μl. In each well, 75 μl buffer C (50 mM Tris, 100 mM NaCl, 1 mM EDTA, 0.1% B SA (protease free), 0.01% NaN3, pH 7.4) is mixed with 50 μl {^3H}-PGD2 (at 2.5 nM (220.000 dpm per well) from Amersham, TRK734), 100 μl CRTH2 membranes to give 80 μg per well and 25 μl of test compound in buffer C containing 1% DMSO. For unspecific binding, PGD2 is added to the reaction mixture at 1 μM final concentration. This binding assay mix is incubated at it for 90 min and then filtered through a GF/C filter plate. The filter is washed three times with ice cold binding buffer. Then, 40 μl per well Microscint-40 (Packard) are added and the bound radioactivity is quantified by means of Topcourt (Packard).

hCRTH2 receptor [2] = target: T1, hCRTH2 receptor; assay: Intracellular calcium mobilization assay (FLIPR), antagonism of prostaglandin D2; format: cell-based; details: HEK-293 cells stably expressing hCRTH2; agonist prostaglandin D2 10 nM final; read-out: FLIPR CRTH2 IC50
Procedure: Intracellular Calcium Mobilization Assay (FLIPR):
Cells (HEK-293), stably expressing the hCRTH2 receptor under the control of the cytomegalovirus promotor from a single insertion of the expression vector pcDNA5 (Invitrogen), are grown to confluency in DMEM (low glucose, Gibco) medium supplemented with 10% fetal calf serum (both Bioconcept, Switzerland) under standard mammalian cell culture conditions (37° C. in a humidified atmosphere of 5% CO2). Cells are detached from culture dishes using a dissociation buffer (0.02% EDTA in PBS, Gibco) for 1 min, and collected by centrifugation at 200 g at rt for 5 min in assay buffer [equal parts of Hank's BSS (HBSS, Bioconcept) and DMEM (low glucose, without phenol red, Gibco)]. After incubation for 45 min (37° C. and 5% CO2) in the presence of 1 μM Fluo-4 and 0.04% Pluronic F-127 (both Molecular Probes), 20 mM HEPES (Gibco) in assay buffer, the cells are washed with and resuspended in assay buffer, then seeded onto 3 84-welt FLIPR assay plates (Greiner) at 50,000 cells in 66 μl per well, and sedimented by centrifugation.
Stock solutions of test compounds are made up at a concentration of 10 mM in DMSO, and serially diluted in assay buffer to concentrations required for inhibition dose response curves. Prostaglandin D2 (Biomol, Plymouth Meeting, Pa.) is used as an agonist.
A FLIPR384 instrument (Molecular Devices) is operated according to the manufacturer's standard instructions, adding 4 μl of test compound dissolved at 10 mM in DMSO and diluted prior to the experiment in assay buffer to obtain the desired final concentration. 10 μl of 80 nM prostaglandin D2 (Biomol, Plymouth Meeting, Pa.) in assay buffer, supplemented with 0.8% bovine serum albumin (fatty acid content<0.02%, Sigma), is then added to obtain a final concentration of 10 nM and 0.1%, respectively. Changes in fluorescence are monitored before and after the addition of test compounds at λex=488 nm and λem=540 nm. Emission peak values above base level after prostaglandin D2 addition are exported after base line subtraction. Values are normalized to high-level control (no test compound added) after subtraction of base line value (no prostaglandin D2 added). The program XLlfit 3.0 (IDBS) is used to fit the data to a single site dose response curve of the equation (A+((B−A)/(1+((C/x)^D)))) and to calculate the IC50 values.

| Structure (SMILES) | IC50 (hCRTH2 receptor [1]) | IC50 (hCRTH2 receptor [2]) |
| --- | --- | --- |
| O=C(O)Cn1c2c(c3ccccc31)CN(C(=O)c1cccc3[nH]ccc13)CC2 [[2-(1H-indole-4-carbonyl)-1,2,3,4-tetrahydro-pyrido[4,3-b]indol-5-yl]-acetic acid] |  | 0.019 µM |
| O=C(O)Cn1c2c(c3ccccc31)CN(C(=O)c1cccc(Cl)c1)CC2 [[2-(3-chloro-benzoyl)-1,2,3,4-tetrahydro-pyrido[4,3-b]indol-5-yl]-acetic acid] | 0.015 µM | 0.174 µM |
| O=C(O)Cn1c2c(c3cc(F)ccc31)CN(C(=O)Cc1cccc3ccccc13)CC2 [[8-fluoro-2-(2-naphthalen-1-yl-acetyl)-1,2,3,4-tetrahydro-pyrido[4,3-b]indol-5-yl]-acetic acid] | 0.003 µM |  |
| Cc1cccc(C(=O)N2CCc3c(c4ccccc4n3CC(=O)O)C2)c1Br [[2-(2-bromo-3-methyl-benzoyl)-1,2,3,4-tetrahydro-pyrido[4,3-b]indol-5-yl]-acetic acid] | 0.014 µM |  |
| O=C(O)Cn1c2c(c3ccccc31)CN(C(=O)c1cccc3c(Br)cccc13)CC2 [[2-(5-bromo-naphthalene-1-carbonyl)-1,2,3,4-tetrahydro-pyrido[4,3-b]indol-5-yl]-acetic acid] | 0.012 µM |  |
| O=C(O)Cn1c2c(c3ccccc31)CN(C(=O)c1ccco1)CC2 [[2-(furan-2-carbonyl)-1,2,3,4-tetrahydro-pyrido[4,3-b]indol-5-yl]-acetic acid] |  | 0.088 µM |
| COc1ccc2ccccc2c1C(=O)N1CCc2c(c3cc(Cl)ccc3n2CC(=O)O)C1 [[8-chloro-2-(2-methoxy-naphthalene-1-carbonyl)-1,2,3,4-tetrahydro-pyrido[4,3-b]indol-5-yl]-acetic acid] |  | 0.003 µM |
| CC(C)(C)OC(=O)N1CCc2c(c3cc(F)ccc3n2CC(=O)O)C1 [5-carboxymethyl-8-fluoro-1,3,4,5-tetrahydro-pyrido[4,3-b]indole-2-carboxylic acid tert-butyl ester] |  | 0.022 µM |

The next lines start with the values.

| IC50 (hCRTH2 receptor [1]) | IC50 (hCRTH2 receptor [2]) | Structure (SMILES) |
| --- | --- | --- |
| 0.001 µM |  | CCc1ccc(-c2ccc(C(=O)N3CCc4c(c5cc(F)ccc5n4CC(=O)O)C3)cc2)cc1 [[2-(4′-ethyl-biphenyl-4-carbonyl)-8-fluoro-1,2,3,4-tetrahydro-pyrido[4,3-b]indol-5-yl]-acetic acid] |
| 0.001 µM |  | O=C(O)Cn1c2c(c3cc(C(F)(F)F)ccc31)CN(C(=O)c1ccccc1)CC2 [(2-benzoyl-8-trifluoromethyl-1,2,3,4-tetrahydro-pyrido[4,3-b]indol-5-yl)-acetic acid] |
|  | 0.05 µM | O=C(O)Cn1c2c(c3cc(Cl)ccc31)CN(C(=O)c1cccs1)CC2 [[8-chloro-2-(thiophene-2-carbonyl)-1,2,3,4-tetrahydro-pyrido[4,3-b]indol-5-yl]-acetic acid] |
|  | 0.091 µM | COc1cc(C(=O)N2CCc3c(c4ccccc4n3CC(=O)O)C2)cc(OC)c1OC [[2-(3,4,5-trimethoxy-benzoyl)-1,2,3,4-tetrahydro-pyrido[4,3-b]indol-5-yl]-acetic acid] |
|  | 0.083 µM | O=C(O)Cn1c2c(c3ccccc31)CN(C(=O)c1ccc(Br)cc1)CC2 [[2-(4-bromo-benzoyl)-1,2,3,4-tetrahydro-pyrido[4,3-b]indol-5-yl]-acetic acid] |
| 0.007 µM |  | CCc1ccc(-c2ccc(C(=O)N3CCc4c(c5ccccc5n4CC(=O)O)C3)cc2)cc1 [[2-(4′-ethyl-biphenyl-4-carbonyl)-1,2,3,4-tetrahydro-pyrido[4,3-b]indol-5-yl]-acetic acid] |
| 0.004 µM |  | O=C(O)Cn1c2c(c3cc(Br)ccc31)CN(C(=O)c1cccs1)CC2 [[8-bromo-2-(thiophene-2-carbonyl)-1,2,3,4-tetrahydro-pyrido[4,3-b]indol-5-yl]-acetic acid] |
|  | 0.015 µM | Cc1cccc(C(=O)N2CCc3c(c4cc(Br)ccc4n3CC(=O)O)C2)c1Br [[8-bromo-2-(2-bromo-3-methyl-benzoyl)-1,2,3,4-tetrahydro-pyrido[4,3-b]indol-5-yl]-acetic acid] |

Source: patent US7714132B2, “Tetrahydropyridoindole derivatives” (Actelion Pharmaceuticals, Ltd., priority 2004, dated 2010)
